Assay results reported in patent US8816085B2 (Takeda GmbH, priority 2009, dated 2014).

molecular target: T1, PDE5A1 (human PDE5 from platelets) (Homo sapiens, UniProt O76074); test: Inhibition of type 5 phosphodiesterase (PDE5) activity, modified SPA test; format: biochemical; settings: PDE5-containing human platelet lysate, 0.5 μM cGMP, value classes, read-out: PDE5A1 inhibitory values [measured as −logIC50 (mol/l)] (converted)
T1 construct: from tissue; host or cells: platelets from fresh blood of human donors (10,000 g supernatant of sonified platelets)
Experimental: Method for Measuring Inhibition of the Type 5 Phosphodiesterase (PDE5) Activity:
As a source for human PDE5, platelets are used. For that purpose, 150 ml fresh blood from human donors anticoagulated with citrate [final concentration 0.3% (w/v)] is centrifuged at 200 g for 10 min to obtain the so-called platelet-rich-plasma (PRP) as a supernatant. 1/10 volume of ACD solution (85 mM Na3-citrate, 111 mM D-glucose, 71 mM citric acid, pH 4.4) is added to 9/10 volume of PRP. After centrifugation (1,400 g, 10 min) the cell pellet is resuspended in 3 ml homogenization buffer (NaCl 140 mM, KCl 3.8 mM, EGTA (ethylene glycol tetraacetic acid) 1 mM, MgCl2 1 mM, Tris-HCl 20 mM, beta-mercaptoethanol 1 mM, pH 8.2) plus protease-inhibitor mix giving rise to the final concentrations of 0.5 mM Pefablock (Roche), 10 μM Leupeptin, 5 μM Trypsininhibitor, 2 mM Benzamidin and 10 μM Pepstatin A. The suspension is sonified and thereafter centrifuged for 15 min at 10,000 g. The resulting supernatant (platelet lysate) is used for enzymatic testings.
PDE5A1 activity is inhibited by the compounds of the present subject matter in a modified SPA (scintillation proximity assay) test, supplied by Amersham Biosciences (see procedural instructions “phosphodiesterase [3H]cAMP SPA enzyme assay, code TRKQ 7090”), carried out in 96-well microtitre plates (MTP's). The test volume is 100 μl and contains 20 mM Tris buffer (pH 7.4), 0.1 mg of BSA (bovine serum albumin)/ml, 5 mM Mg^2+, 1 μM motapizone, 10 nM PDE2 inhibitor 2-(3,4-dimethoxybenzyl)-7-[(1R,2R)-2-hydroxy-1-(2-phenylethyl)propyl]-5-methylimidazo[5,1-t][1,2,4]triazin-4(3H)-one, 0.5 μM cGMP (cyclic guanosine monophosphate) (including about 50,000 cpm of [3H]cGMP as a tracer), 1 μl of the respective compound dilution in dimethylsulfoxide (DMSO) and sufficient PDE5-containing platelet lysat (10,000×g supernatant, see above) to ensure that 10-20 wt % of the cGMP is converted under the said experimental conditions. […] After a preincubation of 5 min at 37° C., the reaction is started by adding the substrate (cGMP) and the assay is incubated for a further 15 min; after that, it is stopped by adding SPA beads (50 μl). In accordance with the manufacturer's instructions, the SPA beads had previously been resuspended in water, but are then diluted 1:3 (v/v) in water; the diluted solution also contains 3 mM 8-methoxymethyl-3-isobutyl-1-methylxanthine (IBMX) to ensure a complete PDE activity stop. After the beads have been sedimented (>30 min), the MTP's are analyzed in commercially available luminescence detection devices. The corresponding IC50 values of the compounds for the inhibition of PDE activity are determined from the concentration-effect curves by means of non-linear regression.

Structure (SMILES)	IC50
CCC(=O)N1CCC(NC(=O)c2c(C)[nH]c3c(-c4ccc(OC)cc4OCC4CC4)ccnc23)CC1 [Example E32, 7-[2-(Cyclopropylmethoxy)-4-methoxyphenyl]-2-methyl-N-(1-propanoylpiperidin-4-yl)-1H-pyrrolo[3,2-b]pyridine-3-carboxamide]	< 1 nM
COCC(=O)N1CCC(NC(=O)c2c(C)[nH]c3c(-c4ccc(OC)cc4OCC4CC4)ccnc23)CC1 [Example E33, 7-[2-(Cyclopropylmethoxy)-4-methoxyphenyl]-N-[1-(methoxyacetyl)piperidin-4-yl]-2-methyl-1H-pyrrolo[3,2-b]pyridine-3-carboxamide]	< 1 nM
COc1ccc(-c2ccnc3c(C(=O)N[C@H]4CC[C@H](NC(C)=O)CC4)c(C)[nH]c23)c(OCC2CC2)c1 [Example E34, N-[trans-4-(Acetylamino)cyclohexyl]-7-[2-(cyclopropylmethoxy)-4-methoxyphenyl]-2-methyl-1H-pyrrolo[3,2-b]pyridine-3-carboxamide]	< 1 nM
COCC(=O)N[C@H]1CC[C@H](NC(=O)c2c(C)[nH]c3c(-c4ccc(OC)cc4OCC4CC4)ccnc23)CC1 [Example E36, 7-[2-(Cyclopropylmethoxy)-4-methoxyphenyl]-N-{trans-4-[(methoxyacetyl)amino]cyclohexyl}-2-methyl-1H-pyrrolo[3,2-b]pyridine-3-carboxamide]	< 1 nM
COc1ccc(-c2ccnc3c(C(=O)N[C@H]4CC[C@@H](NC(C)=O)CC4)c(C)[nH]c23)c(OCC2CC2)c1 [Example E37, N-[cis-4-(Acetylamino)cyclohexyl]-7-[2-(cyclopropylmethoxy)-4-methoxyphenyl]-2-methyl-1H-pyrrolo[3,2-b]pyridine-3-carboxamide]	< 1 nM
COCC(=O)N[C@H]1CC[C@@H](NC(=O)c2c(C)[nH]c3c(-c4ccc(OC)cc4OCC4CC4)ccnc23)CC1 [Example E39, 7-[2-(Cyclopropylmethoxy)-4-methoxyphenyl]-N-{cis-4-[(methoxyacetyl)amino]cyclohexyl}-2-methyl-1H-pyrrolo[3,2-b]pyridine-3-carboxamide]	1 to 10 nM
COc1ccc(OCC2CC2)c(-c2ccnc3c(C(=O)NC4CCN(C(C)=O)CC4)c(C)[nH]c23)c1 [Example E40, N-(1-Acetylpiperidin-4-yl)-7-[2-(cyclopropylmethoxy)-5-methoxyphenyl]-2-methyl-1H-pyrrolo[3,2-b]pyridine-3-carboxamide]	< 1 nM
CCC(=O)N1CCC(NC(=O)c2c(C)[nH]c3c(-c4cc(OC)ccc4OCC4CC4)ccnc23)CC1 [Example E41, 7-[2-(cyclopropylmethoxy)-5-methoxyphenyl]-2-methyl-N-(1-propanoylpiperidin-4-yl)-1H-pyrrolo[3,2-b]pyridine-3-carboxamide]	< 1 nM
COCC(=O)N1CCC(NC(=O)c2c(C)[nH]c3c(-c4cc(OC)ccc4OCC4CC4)ccnc23)CC1 [Example E42, 7-[2-(cyclopropylmethoxy)-5-methoxyphenyl]-N-[1-(methoxyacetyl)piperidin-4-yl]-2-methyl-1H-pyrrolo[3,2-b]pyridine-3-carboxamide]	1 to 10 nM
COc1ccc(OCC2CC2)c(-c2ccnc3c(C(=O)N[C@H]4CC[C@H](NC(C)=O)CC4)c(C)[nH]c23)c1 [Example E43, N-[trans-4-(Acetylamino)cyclohexyl]-7-[2-(cyclopropylmethoxy)-5-methoxyphenyl]-2-methyl-1H-pyrrolo[3,2-b]pyridine-3-carboxamide]	< 1 nM
COc1ccc(OCC2CC2)c(-c2ccnc3c(C(=O)N[C@H]4CC[C@@H](NC(C)=O)CC4)c(C)[nH]c23)c1 [Example E46, N-[cis-4-(Acetylamino)cyclohexyl]-7-[2-(cyclopropylmethoxy)-5-methoxyphenyl]-2-methyl-1H-pyrrolo[3,2-b]pyridine-3-carboxamide]	< 1 nM
CC(=O)N1CCC(NC(=O)c2c(C)[nH]c3c(-c4cc(C)ccc4OCC4CC4)ccnc23)CC1 [Example E52, N-(1-Acetylpiperidin-4-yl)-7-[2-(cyclopropylmethoxy)-5-methylphenyl]-2-methyl-1H-pyrrolo[3,2-b]pyridine-3-carboxamide]	1 to 10 nM
CCC(=O)N1CCC(NC(=O)c2c(C)[nH]c3c(-c4cc(C)ccc4OCC4CC4)ccnc23)CC1 [Example E53, 7-[2-(Cyclopropylmethoxy)-5-methylphenyl]-2-methyl-N-(1-propanoylpiperidin-4-yl)-1H-pyrrolo[3,2-b]pyridine-3-carboxamide]	1 to 10 nM
COCC(=O)N1CCC(NC(=O)c2c(C)[nH]c3c(-c4cc(C)ccc4OCC4CC4)ccnc23)CC1 [Example E54, 7-[2-(Cyclopropylmethoxy)-5-methylphenyl]-N-[1-(methoxyacetyl)piperidin-4-yl]-2-methyl-1H-pyrrolo[3,2-b]pyridine-3-carboxamide]	1 to 10 nM

Results, then the molecule that gave them:

IC50	Structure (SMILES)
< 1 nM	CCC(=O)N[C@H]1CC[C@H](NC(=O)c2c(C)[nH]c3c(-c4ccc(OC)cc4OCC4CC4)ccnc23)CC1 [Example E35, 7-[2-(Cyclopropylmethoxy)-4-methoxyphenyl]-2-methyl-N-[trans-4-(propanoylamino)cyclohexyl]-1H-pyrrolo[3,2-b]pyridine-3-carboxamide]
< 1 nM	CCC(=O)N[C@H]1CC[C@@H](NC(=O)c2c(C)[nH]c3c(-c4ccc(OC)cc4OCC4CC4)ccnc23)CC1 [Example E38, 7-[2-(Cyclopropylmethoxy)-4-methoxyphenyl]-2-methyl-N-[cis-4-(propanoylamino)cyclohexyl]-1H-pyrrolo[3,2-b]pyridine-3-carboxamide]
< 1 nM	CCC(=O)N[C@H]1CC[C@H](NC(=O)c2c(C)[nH]c3c(-c4cc(OC)ccc4OCC4CC4)ccnc23)CC1 [Example E44, 7-[2-(Cyclopropylmethoxy)-5-methoxyphenyl]-2-methyl-N-[trans-4-(propanoylamino)cyclohexyl]-1H-pyrrolo[3,2-b]pyridine-3-carboxamide]
< 1 nM	COCC(=O)N[C@H]1CC[C@H](NC(=O)c2c(C)[nH]c3c(-c4cc(OC)ccc4OCC4CC4)ccnc23)CC1 [Example E45, 7-[2-(Cyclopropylmethoxy)-5-methoxyphenyl]-N-{trans-4-[(methoxyacetyl)amino]cyclohexyl}-2-methyl-1H-pyrrolo[3,2-b]pyridine-3-carboxamide]
1 to 10 nM	CCC(=O)N[C@H]1CC[C@@H](NC(=O)c2c(C)[nH]c3c(-c4cc(OC)ccc4OCC4CC4)ccnc23)CC1 [Example E47, 7-[2-(Cyclopropylmethoxy)-5-methoxyphenyl]-2-methyl-N-[cis-4-(propanoylamino)cyclohexyl]-1H-pyrrolo[3,2-b]pyridine-3-carboxamide]
1 to 10 nM	COCC(=O)N[C@H]1CC[C@@H](NC(=O)c2c(C)[nH]c3c(-c4cc(OC)ccc4OCC4CC4)ccnc23)CC1 [Example E48, 7-[2-(Cyclopropylmethoxy)-5-methoxyphenyl]-N-{cis-4-[(methoxyacetyl)amino]cyclohexyl}-2-methyl-1H-pyrrolo[3,2-b]pyridine-3-carboxamide]
1 to 10 nM	CC(=O)N[C@H]1CC[C@H](NC(=O)c2c(C)[nH]c3c(-c4cc(C)ccc4OCC4CC4)ccnc23)CC1 [Example E55, N-[trans-4-(Acetylamino)cyclohexyl]-7-[2-(cyclopropylmethoxy)-5-methylphenyl]-2-methyl-1H-pyrrolo[3,2-b]pyridine-3-carboxamide]
1 to 10 nM	CCC(=O)N[C@H]1CC[C@H](NC(=O)c2c(C)[nH]c3c(-c4cc(C)ccc4OCC4CC4)ccnc23)CC1 [Example E56, 7-[2-(Cyclopropylmethoxy)-5-methylphenyl]-2-methyl-N-[trans-4-(propanoylamino)cyclohexyl]-1H-pyrrolo[3,2-b]pyridine-3-carboxamide]
1 to 10 nM	COCC(=O)N[C@H]1CC[C@H](NC(=O)c2c(C)[nH]c3c(-c4cc(C)ccc4OCC4CC4)ccnc23)CC1 [Example E57, 7-[2-(Cyclopropylmethoxy)-5-methylphenyl]-N-{trans-4-[(methoxyacetyl)amino]cyclohexyl}-2-methyl-1H-pyrrolo[3,2-b]pyridine-3-carboxamide]
